Measured values as given in patent US7759542B2, “Glycine N-methyltransferase (GNMT) animal model and use thereof” (priority 2007, dated 2010).
Values joined by “and” are separate entries in the source; they are usually repeats but may differ in a detail not shown here. Equal values may be shown once. “Also recorded” adds a separate entry of the source. Read-outs that look alike come from different tables or passages of the source.

Key:
[1] = system: GNMT; format: cell-based
[2] = system: HuH-7 cells; assay: MTT cytotoxicity assay of AFB1 on HuH-7 cells; format: cell-based
Description: MTT assay was used to determine the cytotoxicity effect of AFB1. In brief, cells were seeded on 96 well plate. At the time of assay, culture medium was replaced by 100 μL fresh medium containing 10 μL of 5 mg/mL MTT stock solution for each well. After 4 hr of labeling cells with MTT, medium was removed then 100 μL DMSO was added to each well for 10 min at 37° C. Samples were mixed and read absorbance at 540 nm. For half lethal concentration (LC50) determination, seven thousand HuH-7 cells were seeded on 96 well plate for 18 hr. Cells were treated with different concentration of AFB1 and MTT assay was performed at series time points, triplicate for each set. The survival percentage is calculated by dividing the OD value of treatment group by solvent control group. For cytotoxicity assay, five thousand HuH-7 cells were infected with different amount of adenovirus or lentivirus carrying GNMT cDNA for 8 hr then refreshed medium for another 10 hr. After 72 hr of AFB1 treatment, MTT assay was performed to determine the survival percentage.
MTT assay was used to determine the percentage of survived cells. To optimize the condition of cytotoxicity assay, HuH-7 cells were treated with different concentrations of AFB1 for series time course. […] The cytotoxicity effect of treatment up to 16 μM AFB1 was obscure within 24 hr. […]

[3] = system: wild-type mice; conditions: mouse, in vivo
[4] = system: GNMT-TG mice; conditions: mouse, in vivo
[5] = system: wild-type mice; conditions: mouse, in vivo; remark: listed apart in the source
[6] = system: Gnmt−/− mice; conditions: mouse, in vivo

Substance: aflatoxin B1 [AFB1]
- GNMT distribution following AFB1 treatment [1]: partly translocated to cell nuclei
- cytotoxicity effect [2]: obscure
- Pathological examination of liver [3]: dysplasia and HCC
- ALT ([3]; ip): 134 ± 112 and 109 ± 97
- liver/body weight % ([3]; ip): 4.7 ± 0.3% and 4.0 ± 0.7%
- Pathological examination of liver [4]: normal pattern
- ALT ([4]; ip): 61 ± 37 and 100 ± 73
- liver/body weight % ([4]; ip): 4.5 ± 0.9% and 3.7 ± 0.4%
- HE staining of histological liver sections [5]: no abnormalities
- ALT ([5]; ip): 27.5 ± 0.71 U/L and 22.83 ± 3.92 U/L
- AST ([5]; ip): 72.00 ± 58.92 U/L and 42.50 ± 8.22 U/L
- Nodules <0.5 cm ([5]; ip): 0
- Nodules >0.5 cm ([5]; ip): 0
- HE staining of histological liver sections [6]: Dysplastic nodule, early HCC and fatty nodules; also recorded: Sclenosing HCC, Dysplastic nodule with focal fatty change
- Nodules <0.5 cm ([6]; ip): 3 and 6
- Nodules >0.5 cm ([6]; ip): 4 and 5
